Test results published in patent US20220402935A1, “HETEROCYCLIC COMPOUND” (FIMECS, INC., priority 2019, published 2022).

Assays:
[1] = target: T1, human XIAP_BIR3 domain purified protein (Homo sapiens, UniProt P98170); assay: XIAP binding inhibitory activity (HTRF, b-Smac ligand); settings: for IC50: second symbol of cell, read-out: XIAP binding inhibition IC50 value
T1 construct: purchased R & D
Description: Human XIAP binding inhibitory activity was measured by the Homogeneous Time Resolved Fluorescence (HTRF) method with using commercially available human XIAP_BIR3 domain purified protein (R & D) and as a ligand a Smac N-terminal peptide (AVPIAQK (SEQ ID NO: 1)) (hereinafter referred to as “b-Smac”; Peptide Research Laboratories, Inc.) biotinylated at the C-terminus according to a conventional method.
The HTRF method will be described in detail below.
The test compound diluted with a reaction buffer (25 mM HEPES Buffer containing 100 mM NaCl, 0.1% BSA, and 0.1% triton X-100, pH 7.5) was added to a 384-well white shallow bottom plate (Greiner 784076) at 1 μL/well and flash centrifuged for 30 seconds. Subsequently, human XIAP_BIR3 domain purified protein was diluted with the reaction buffer to obtain a 90 nM sample diluent, and the resultant sample diluent was added to the above-mentioned white superficial plate at 4.5 μL/well and flash centrifuged for 30 seconds. Subsequently, b-Smac diluted to 90 nM with the reaction buffer was added to the above-mentioned white superficial plat at 4.5 μL/well and flash centrifuged for 30 seconds. A mixed solution of Anti-6 HIS-Cryptate (Eu^3+ Cryptate-conjugated mouse monoclonal antibody anti-6 Histidine; cisbio) and Streptavidin-XL^eat (Highgrade XL665-conjugated streptavidin; cisbio) both diluted 100-fold with HTRF detection buffer (cisbio) at a volume ratio of 1:1 was added to the above white superficial plate at 10 μL/well. After flash centrifuging the white shallow bottom plate for 30 seconds, the white shallow bottom plate was left at room temperature for 4 hours or more in the dark. The white superficial plate after being left was subjected to fluorescence intensity measurement (excitation wavelength: 320 nm, fluorescence wavelength: 665 nm and 615 nm) by EnVision (Perkin Elmer). The binding inhibition rate (%) was calculated based on the HTRF ratio in the presence of the test compound to the HTRF ratio in the absence of the test compound (fluorescence intensity at 665 nm/fluorescence intensity at 615 nm).
The XIAP binding inhibition rate (%) of test compounds was evaluated.

[2] = target: T2, IRAK-M (Homo sapiens, UniProt Q9Y616); assay: IRAK-M binding inhibitory activity (KINOMEscan active site-dependent competitive assay); parameters: purchased Eurofins Discover X; settings: second symbol of cell; read-out: IRAK-M binding inhibition IC50 value
T2 sequence (Q9Y616 1-596): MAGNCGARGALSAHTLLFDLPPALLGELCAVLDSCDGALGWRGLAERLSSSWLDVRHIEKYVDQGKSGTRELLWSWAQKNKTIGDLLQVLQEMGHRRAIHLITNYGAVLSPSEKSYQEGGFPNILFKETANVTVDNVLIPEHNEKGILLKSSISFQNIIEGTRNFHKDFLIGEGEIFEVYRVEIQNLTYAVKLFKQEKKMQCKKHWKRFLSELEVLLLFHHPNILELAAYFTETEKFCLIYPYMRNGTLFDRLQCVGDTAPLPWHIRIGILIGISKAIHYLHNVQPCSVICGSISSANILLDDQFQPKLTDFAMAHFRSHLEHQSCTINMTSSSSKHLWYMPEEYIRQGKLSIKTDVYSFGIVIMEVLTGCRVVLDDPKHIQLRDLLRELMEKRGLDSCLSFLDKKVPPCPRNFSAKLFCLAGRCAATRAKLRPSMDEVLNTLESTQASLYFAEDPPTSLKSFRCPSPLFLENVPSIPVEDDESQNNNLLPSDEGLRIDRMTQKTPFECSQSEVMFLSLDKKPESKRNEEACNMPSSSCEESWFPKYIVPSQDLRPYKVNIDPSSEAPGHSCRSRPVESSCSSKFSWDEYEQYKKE
Outline: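 Readout given as % Ctrl, with DMSO as 100% and a control compound as 0%, scaling the test compound signal between them. Binding to human IRAK-M was assessed by KINOMEscan competition at the kinase active site.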

T1 sequence (P98170 252-356 limits assumed): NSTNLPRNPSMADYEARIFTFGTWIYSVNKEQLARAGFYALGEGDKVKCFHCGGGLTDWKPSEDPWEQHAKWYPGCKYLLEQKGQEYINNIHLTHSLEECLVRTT

Compound | IC50 [1] [µM] | IC50 [2] [nM] | inhibition at 3 µM ([1]; concentration of the test compound 3 μM, first symbol of cell, read-out: XIAP binding inhibition rate) [%]
CN[C@@H](C)C(=O)N[C@H](C(=O)N1CCN(C(=O)c2c(C(=O)NCCOCCOCCOc3ccc(S(=O)(=O)N4CCC(Oc5ncnc6ccsc56)CC4)cc3)c3ccc(OC)cc3n2C)CC1)C1CCCCC1 [Example 2, 2-(4-((S)-2-Cyclohexyl-2-((S)-2-(methylamino)propanamido)acetyl)piperazine-1-carbonyl)-6-methoxy-1-methyl-N-(2-(2-(2-(4-((4-(thieno[3,2-d]pyrimidin-4-yloxy)piperidin-1-yl)sulfonyl)phenoxy)ethoxy)ethoxy)ethyl)-1H-indole-3-carboxamide] | 0.3 to 3 | 300 to 1000 | 
CN[C@@H](C)C(=O)N[C@H](C(=O)N1CCN(C(=O)c2c(C(=O)N(C)CCOCCOCCOc3cc(CN4CCC(Oc5ccnc6ccsc56)CC4)on3)c3cc(F)ccc3n2C)CC1)C1CCCCC1 [Example 3, 2-(4-((S)-2-cyclohexyl-2-((S)-2-(methylamino)propanamido)acetyl)piperazine-1-carbonyl)-5-fluoro-N,1-dimethyl-N-(2-(2-(2-((5-((4-(thieno[3,2-b]pyridin-7-yloxy)piperidin-1-yl)methyl)isoxazol-3-yl)oxy)ethoxy)ethoxy)ethyl)-1H-indole-3-carboxamide] | 0.3 to 3 | 100 to 300 | 
CN[C@@H](C)C(=O)N[C@H](C(=O)N1CCN(C(=O)c2c(C(=O)NCCOCCOc3cc(CN4CCC(Oc5ccnc6ccsc56)CC4)on3)c3cc(F)c(F)cc3n2C)CC1)C1CCCCC1 [Example 4, 2-(4-((S)-2-cyclohexyl-2-((S)-2-(methylamino)propanamido)acetyl)piperazine-1-carbonyl)-5,6-difluoro-1-methyl-N-(2-(2-((5-((4-(thieno[3,2-b]pyridin-7-yloxy)piperidin-1-yl)methyl)isoxazol-3-yl)oxy)ethoxy)ethyl)-1H-indole-3-carboxamide] | 0.3 to 3 | 300 to 1000 | 
CN[C@@H](C)C(=O)N[C@H](C(=O)N1CCN(C(=O)c2cc3cc(F)c(F)cc3n2CCOCCOCCOc2cc(CN3CCC(Oc4ccnc5ccsc45)CC3)on2)CC1)C1CCCCC1 [Example 30, (S)-N-((S)-1-cyclohexyl-2-(4-(5,6-difluoro-1-(2-(2-(2-((5-((4-(thieno[3,2-b]pyridin-7-yloxy)piperidin-1-yl)methyl)isoxazol-3-yl)oxy)ethoxy)ethoxy)ethyl)-1H-indole-2-carbonyl)piperazin-1-yl)-2-oxoethyl)-2-(methylamino)propanamide] |  |  | > 25
CN[C@@H](C)C(=O)N[C@H](C(=O)N1CCN(C(=O)c2cc3cc(F)ccc3n2CC(=O)N2C[C@@H](Oc3cc(CN4CCC(Oc5ccnc6ccsc56)CC4)on3)C[C@H]2CO)[C@@H](C)C1)C1CCCCC1 [Example 43, (S)-N-((S)-1-cyclohexyl-2-((S)-4-(5-fluoro-1-(2-((2S,4S)-2-(hydroxymethyl)-4-((5-((4-(thieno[3,2-b]pyridin-7-yloxy)piperidin-1-yl)methyl)isoxazol-3-yl)oxy)pyrrolidin-1-yl)-2-oxoethyl)-1H-indole-2-carbonyl)-3-methylpiperazin-1-yl)-2-oxoethyl)-2-(methylamino)propanamide] | 3 to 30 |  | 
CN[C@@H](C)C(=O)N[C@H](C(=O)N1CCN(C(=O)c2cc3cc(F)ccc3n2CC(=O)N(C)CCOc2cc(CN3CCC(Oc4ccnc5ccsc45)CC3)on2)[C@@H](C)C1)C1CCCCC1 [Example 50, (S)-N-((S)-1-cyclohexyl-2-((S)-4-(5-fluoro-1-(2-(methyl(2-((5-((4-(thieno[3,2-b]pyridin-7-yloxy)piperidin-1-yl)methyl)isoxazol-3-yl)oxy)ethyl)amino)-2-oxoethyl)-1H-indole-2-carbonyl)-3-methylpiperazin-1-yl)-2-oxoethyl)-2-(methylamino)propanamide] | 3 to 30 |  | 
